In the supplement of paper PMC11208160:

Assay: recombinant UMI read abundance after kanamycin selection (control-corrected) (log10(CPM+1)); higher = more efficient recombination; extreme values may be limits of the assay; sequences stand for … in AGTGCAGAGAAAATCGGCCAGTTTTCTCTGCCTGCAGTCCGCATGCCGTGGGACCCCTTGGGTTCTAACCTGTTGCCTAGATTTATGCAGCGGACTGCCTTTCTCCCAAAGTGATAAACCGG…AGGTTGGTTTCACT; site = the 11-nt donor
Procedure, shortened: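 Sequenced counts of recombinant UMIs were turned into CPM, averaged across replicates and scaled with control-derived factors. The reported figure is log10(CPM+1). Those UMIs, each 12 nt long, tagged donor and donor-binding-loop pairs on a plasmid with a promoterless kanamycin gene, screened as a pool in Escherichia coli with IPTG (0.07 mM) plus kanamycin or without selection.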
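Note: IS621 bridge recombinase in Escherichia coli cells against a fixed T5 target plasmid.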

Row | Sequence | recombinant UMI read abundance (log10)
1 | CTGCTCACATGGACCGGTTTTCCCGGTAATCCGTATTTGCC (site CTGCTCACTGG) | 2.59
2 | CTGGAGTCATGGACCGGTTTTCCCGGTAATCCGTATTTGCC (site CAGGAGTCTGG) | 2.88
3 | CTGGAGTCATGGACCGGTTTTCCCGGTAATCCGTATTTGCC (site CCGGAGTCTGG) | 1.26
4 | CTGGAGTCATGGACCGGTTTTCCCGGTAATCCGTATTTGCC (site CGGGAGTCTGG) | 0
5 | CTGGAGTCATGGACCGGTTTTCCCGGTAATCCGTATTTGCC (site CTGGAGTCTGG) | 2.84
6 | CTGGCATCATGGACCGGTTTTCCCGGTAATCCGTATTTGAC (site CTAGTATCTGT) | 0
7 | CTGGCATCATGGACCGGTTTTCCCGGTAATCCGTATTTGAC (site CTGGCATCTGT) | 1.53
8 | CTGGCTCCATGGACCGGTTTTCCCGGTAATCCGTATTTGGC (site CTGGCTCCTGC) | 0.763
9 | CTGGCTGCATGGACCGGTTTTCCCGGTAATCCGTATTTGGT (site CTGGCTGCTAC) | 1.7
10 | CTGGGCACATGGACCGGTTTTCCCGGTAATCCGTATTTGAG (site CTGGGCACTCT) | 0.567
11 | CTGGTAGCATGGACCGGTTTTCCCGGTAATCCGTATTTGAC (site CTAGTATCTGT) | 1.68
12 | CTGGTAGCATGGACCGGTTTTCCCGGTAATCCGTATTTGAC (site CTGGTAGCTGT) | 2.85
13 | CTGGTGGCATGGACCGGTTTTCCCGGTAATCCGTATTTGTT (site CTGGTGGCTAA) | 0.723
14 | CTGGTTTCATGGACCGGTTTTCCCGGTAATCCGTATTTGAC (site CTAGTATCTGT) | 0.542
15 | CTGGTTTCATGGACCGGTTTTCCCGGTAATCCGTATTTGAC (site CTGGTTTCTGT) | 1.87
16 | CTGTAATCATGGACCGGTTTTCCCGGTAATCCGTATTTGTG (site CTGTAATCTCA) | 2.52
17 | CTGTACACATGGACCGGTTTTCCCGGTAATCCGTATTTGCT (site CTATACACTAG) | 2.55
18 | CTGTACACATGGACCGGTTTTCCCGGTAATCCGTATTTGCT (site CTCTACACTAG) | 1.52
19 | CTGTACACATGGACCGGTTTTCCCGGTAATCCGTATTTGCT (site CTGTACACTAG) | 2.51
20 | CTGTACACATGGACCGGTTTTCCCGGTAATCCGTATTTGCT (site CTTTACACTAG) | 0.828
21 | CTGTACGCATGGACCGGTTTTCCCGGTAATCCGTATTTGTC (site CTGTACGCTGA) | 2.56
22 | CTGTCGCCATGGACCGGTTTTCCCGGTAATCCGTATTTGCA (site CTGTCGCCTTG) | 0
23 | CTGTCGTCATGGACCGGTTTTCCCGGTAATCCGTATTTGTG (site CTGTCGTCTCA) | 0.831
24 | CTGTGACCATGGACCGGTTTTCCCGGTAATCCGTATTTGTA (site CTGTGACCTTA) | 0.00405
25 | CTGTGCCCATGGACCGGTTTTCCCGGTAATCCGTATTTGAG (site CTGTGCCCTCT) | 0.0219

Row | Sequence | recombinant UMI read abundance (log10)
26 | CTGTGCCCATGGACCGGTTTTCCCGGTAATCCGTATTTGCC (site CTGTGCCCTGG) | 1.34
27 | CTGTTAGCATGGACCGGTTTTCCCGGTAATCCGTATTTGTG (site CAGTTAGCTCA) | 0.669
28 | CTGTTAGCATGGACCGGTTTTCCCGGTAATCCGTATTTGTG (site CCGTTAGCTCA) | 0.102
29 | CTGTTAGCATGGACCGGTTTTCCCGGTAATCCGTATTTGTG (site CGGTTAGCTCA) | 0.0126
30 | CTGTTAGCATGGACCGGTTTTCCCGGTAATCCGTATTTGTG (site CTGTTAGCTCA) | 2.07
31 | CTGTTCGCATGGACCGGTTTTCCCGGTAATCCGTATTTGTA (site CTGTTCGCTTA) | 2.09
32 | CTGTTGCCATGGACCGGTTTTCCCGGTAATCCGTATTTGAC (site CTGTTGCCTGT) | 0
33 | CTTAAAGCATGGACCGGTTTTCCCGGTAATCCGTATTTGAT (site CATAAAGCTAT) | 0
34 | CTTAAAGCATGGACCGGTTTTCCCGGTAATCCGTATTTGAT (site CCTAAAGCTAT) | 0
35 | CTTAAAGCATGGACCGGTTTTCCCGGTAATCCGTATTTGAT (site CGTAAAGCTAT) | 0
36 | CTTAAAGCATGGACCGGTTTTCCCGGTAATCCGTATTTGAT (site CTTAAAGCTAT) | 1.08
37 | CTTAATACATGGACCGGTTTTCCCGGTAATCCGTATTTGGC (site CATAATACTGC) | 0.00796
38 | CTTAATACATGGACCGGTTTTCCCGGTAATCCGTATTTGGC (site CCTAATACTGC) | 0
39 | CTTAATACATGGACCGGTTTTCCCGGTAATCCGTATTTGGC (site CGTAATACTGC) | 0.0463
40 | CTTAATACATGGACCGGTTTTCCCGGTAATCCGTATTTGGC (site CTTAATACTGC) | 0
41 | CTTACGGCATGGACCGGTTTTCCCGGTAATCCGTATTTGAT (site CTTACGGCTAT) | 1.44
42 | CTTACTACATGGACCGGTTTTCCCGGTAATCCGTATTTGGC (site CTTACTACTGC) | 0.688
43 | CTTAGAACATGGACCGGTTTTCCCGGTAATCCGTATTTGGC (site ATTAGAACTGC) | 0
44 | CTTAGAACATGGACCGGTTTTCCCGGTAATCCGTATTTGGC (site CTTAGAACTGC) | 1.4
45 | CTTAGAACATGGACCGGTTTTCCCGGTAATCCGTATTTGGC (site GTTAGAACTGC) | 0.016
46 | CTTAGAACATGGACCGGTTTTCCCGGTAATCCGTATTTGGC (site TTTAGAACTGC) | 0
47 | CTTCAATCATGGACCGGTTTTCCCGGTAATCCGTATTTGGA (site CTTCAATCTTC) | 1.71
48 | CTTCACTCATGGACCGGTTTTCCCGGTAATCCGTATTTGTA (site CTTCACTCTTA) | 1.73
49 | CTTCACTCATGGACCGGTTTTCCCGGTAATCCGTATTTGTA (site CTTCCCTCTTA) | 0.00659
50 | CTTCACTCATGGACCGGTTTTCCCGGTAATCCGTATTTGTA (site CTTCGCTCTTA) | 0.00683

Row | Sequence | recombinant UMI read abundance (log10)
51 | CTTCACTCATGGACCGGTTTTCCCGGTAATCCGTATTTGTA (site CTTCTCTCTTA) | 0
52 | CTTCAGTCATGGACCGGTTTTCCCGGTAATCCGTATTTGGC (site CTTCAGTCTGC) | 0.339
53 | CTTCATACATGGACCGGTTTTCCCGGTAATCCGTATTTGTT (site CTTCATACTAA) | 1.32
54 | CTTCCCTCATGGACCGGTTTTCCCGGTAATCCGTATTTGTG (site CTTCCCTCTCA) | 0.257
55 | CTTCCTACATGGACCGGTTTTCCCGGTAATCCGTATTTGTA (site CTTCCTACTTA) | 0.451
56 | CTTCGCACATGGACCGGTTTTCCCGGTAATCCGTATTTGAA (site CTTCGCACTTT) | 0.375
57 | CTTCTCTCATGGACCGGTTTTCCCGGTAATCCGTATTTGTA (site ATTCTCTCTTA) | 0.402
58 | CTTCTCTCATGGACCGGTTTTCCCGGTAATCCGTATTTGTA (site CATCTCTCTTA) | 0.954
59 | CTTCTCTCATGGACCGGTTTTCCCGGTAATCCGTATTTGTA (site CCTCTCTCTTA) | 0.823
60 | CTTCTCTCATGGACCGGTTTTCCCGGTAATCCGTATTTGTA (site CGTCTCTCTTA) | 1.35
61 | CTTCTCTCATGGACCGGTTTTCCCGGTAATCCGTATTTGTA (site CTACTCTCTTA) | 0.967
62 | CTTCTCTCATGGACCGGTTTTCCCGGTAATCCGTATTTGTA (site CTCCTCTCTTA) | 1.89
63 | CTTCTCTCATGGACCGGTTTTCCCGGTAATCCGTATTTGTA (site CTGCTCTCTTA) | 0.693
64 | CTTCTCTCATGGACCGGTTTTCCCGGTAATCCGTATTTGTA (site CTTATCTCTTA) | 0.00276
65 | CTTCTCTCATGGACCGGTTTTCCCGGTAATCCGTATTTGTA (site CTTCACTCTTA) | 0
66 | CTTCTCTCATGGACCGGTTTTCCCGGTAATCCGTATTTGTA (site CTTCCCTCTTA) | 0.181
67 | CTTCTCTCATGGACCGGTTTTCCCGGTAATCCGTATTTGTA (site CTTCGCTCTTA) | 0.00811
68 | CTTCTCTCATGGACCGGTTTTCCCGGTAATCCGTATTTGTA (site CTTCTATCTTA) | 0.394
69 | CTTCTCTCATGGACCGGTTTTCCCGGTAATCCGTATTTGTA (site CTTCTCACTTA) | 0.0108
70 | CTTCTCTCATGGACCGGTTTTCCCGGTAATCCGTATTTGTA (site CTTCTCCCTTA) | 0.207
71 | CTTCTCTCATGGACCGGTTTTCCCGGTAATCCGTATTTGTA (site CTTCTCGCTTA) | 0.0131
72 | CTTCTCTCATGGACCGGTTTTCCCGGTAATCCGTATTTGTA (site CTTCTCTCTAA) | 0.394
73 | CTTCTCTCATGGACCGGTTTTCCCGGTAATCCGTATTTGTA (site CTTCTCTCTCA) | 0.552
74 | CTTCTCTCATGGACCGGTTTTCCCGGTAATCCGTATTTGTA (site CTTCTCTCTGA) | 0.448
75 | CTTCTCTCATGGACCGGTTTTCCCGGTAATCCGTATTTGTA (site CTTCTCTCTTA) | 2.28
